Where two headings read alike, the source gives them in different places. Marks after values point to notes of the source that are not given here.

Data set [1] relates to L 1210 leukemia cells. The data set is classed as in vivo.
For data set [2] the following is noted: cited from earlier work.
Where [3] appears, read: 31.5 mg/kg × 2 i.p. in lipiodol, Table III.
Setting [4] is: 157 mg/kg × 2 i.p. in lipiodol, Table III.
Setting [5] is: 787 mg/kg, administered only one time, i.p. in lipiodol, Table III.
[6] abbreviates: 57 mg/kg × 2 i.p. in lipiodol, Table III.
[7] abbreviates: 171 mg/kg × 2 i.p. in lipiodol, Table III.
[8] abbreviates: 855 mg/kg × 2 i.p. in lipiodol, Table III.
[9] abbreviates: 11.6 mg/kg × 2 i.p., dispersion in lipiodol, oleic acid moiety two times stoichiometric amount, Table III.
The mark [10] stands for this setting: L1210-CDF1 mice, dispersion in lipiodol.
Where [11] appears, read: 25 mg/kg × 2 i.p. in lipiodol, Table I.
Setting [12] is: 126 mg/kg × 2 i.p. in lipiodol, Table I.
The mark [13] stands for this setting: 630 mg/kg × 2 i.p. in lipiodol, Table I.

As for `CCCCCCCCCC(=O)[O][Pt]1([O]C(=O)CCCCCCCCC)[NH]C2CCCCC2[NH]1` (stereo not drawn) [DACHPt(II)-(Cap)2], the entries for the “CR (mice completely cured / total mice tested)” value in data set [1] (setting [3]), in data set [1] (setting [4]) and in data set [1] (setting [5]) were 0/6, 2/6 and 0/6, respectively. In addition, the results for the “T/C (mean survival time treated / control)” value in data set [1] (setting [3]), in data set [1] (setting [4]) and in data set [1] (setting [5]) were 133, “Toxic” and 111, respectively. In addition, the “MST (mean survival time)” value in data set [1] (31.5 mg/kg × 2 i.p. in lipiodol, Table III control MST 8.5) is listed as 12.0; in data set [1] (787 mg/kg, administered only one time, i.p. in lipiodol, Table III control MST 8.5), 10.0*^1.

As to `CCCCCCCCCCCCCCCCCCCCCCCC(=O)[O][Pt][O]C(=O)CCCCCCCCCCCCCCCCCCCCCCC.NC1CCCCC1N` [DACHPt(II)-(Lig)2], the “T/C (mean survival time treated / control)” value in data set [1] (50 mg/kg × 2 i.p. in lipiodol, Table I) is reported as 150; in data set [1] (250 mg/kg × 2 i.p. in lipiodol, Table I), 100; in data set [1] (1250 mg/kg × 2 i.p. in lipiodol, Table I), 105. The “MST (mean survival time)” value in data set [1] (50 mg/kg × 2 i.p. in lipiodol, Table I control MST 10) came to 10; in data set [1] (250 mg/kg × 2 i.p. in lipiodol, Table I control MST 10) it was 10; in data set [1] (1250 mg/kg × 2 i.p. in lipiodol, Table I control MST 10), 10.5. Further, the “CR (mice completely cured / total mice tested)” value in data set [1] (mouse, in vivo) is recorded as 0/6.

Take `CCCCCCCCCCCC(=O)[O][Pt][O]C(=O)CCCCCCCCCCC.NC1CCCCC1N` [DACHPt(II)-(Lau)2]: the “CR (mice completely cured / total mice tested)” value in data set [1] (setting [6]) is listed as 0/5; in data set [1] (setting [7]), 0/5; in data set [1] (setting [8]), 3/5. Also, the “T/C (mean survival time treated / control)” value stood at 141 in data set [1] (setting [6]), 165 in data set [1] (setting [7]) and 471 in data set [1] (setting [8]). Moreover, the “MST (mean survival time)” value in data set [1] (57 mg/kg × 2 i.p. in lipiodol, Table III control MST 8.5) worked out at 12.0; in data set [1] (171 mg/kg × 2 i.p. in lipiodol, Table III control MST 8.5), 14.0; in data set [1] (855 mg/kg × 2 i.p. in lipiodol, Table III control MST 8.5) it was 40.0.

On to `CCCCCCCCCCCCCCCCCC(=O)[O][Pt][O]C(=O)CCCCCCCCCCCCCCCCC.NC1CCCCC1N` [DACHPt(II)-(Ste)2], for which the “T/C (mean survival time treated / control)” value is on record as 212 in data set [1] (71 mg/kg × 2 i.p. in lipiodol, Table III) and “Toxic” in data set [1] (1060 mg/kg, administered only one time, i.p. in lipiodol, Table III). The “MST (mean survival time)” value in data set [1] (71 mg/kg × 2 i.p. in lipiodol, Table III control MST 8.5) is 18.0; in data set [1] (1060 mg/kg, administered only one time, i.p. in lipiodol, Table III control MST 8.5) it was 7.0*^1. Further, the “CR (mice completely cured / total mice tested)” value in data set [1] (mouse, in vivo) is 2/5.

On to `N.N.[Cl][Pt][Cl]` [CDDP, Cis-dichlorodiammine platinum (II), reference compound], for which the “CR (mice completely cured / total mice tested)” value in data set [1] (setting [9]) is 0/5. For the same compound, the “T/C (mean survival time treated / control)” value in data set [1] (setting [9]) was 182; in data set [1] (58 mg/kg × 2 i.p., dispersion in lipiodol, oleic acid moiety two times stoichiometric amount, Table III) it was “Toxic”. Moreover, the “MST (mean survival time)” value worked out at 15.5 in data set [1] (11.6 mg/kg × 2 i.p., dispersion in lipiodol, oleic acid moiety two times stoichiometric amount, Table III control MST 8.5) and 4.0 in data set [1] (58 mg/kg × 2 i.p., dispersion in lipiodol, oleic acid moiety two times stoichiometric amount, Table III control MST 8.5). In addition, in data set [1] (setting [10]), the “complete recovery at rather low dose” value was “complete recovery is not observed”.

Turning to `CCCCCCCC/C=C\CCCCCCCC(=O)[O-].CCCCCCCC/C=C\CCCCCCCC(=O)[O-].NC1CCCCC1N.[Pt+2]` [DACHPt(II)-(Ole)2, Cyclohexane-1,2-diammine Platinum (II) Dioleate], the results for the “CR (mice completely cured / total mice tested)” value in data set [1] (setting [11]), in data set [1] (setting [12]) and in data set [1] (setting [13]) were 0/5, 0/6 and 2/7, respectively. In addition, the figures for the “T/C (mean survival time treated / control)” value in data set [1] (setting [11]), in data set [1] (setting [12]) and in data set [1] (setting [13]) were 130, 170 and “Toxic”, respectively. The “MST (mean survival time)” value in data set [1] (25 mg/kg × 2 i.p. in lipiodol, Table I control MST 10) is recorded as 13.0; in data set [1] (126 mg/kg × 2 i.p. in lipiodol, Table I control MST 10), 17.0.

For `N.N.O=C([O-])C1(C(=O)[O-])CCC1.[Pt+2]` [carboplatin, cis-diammine-1,1-cyclobutane-dicarboxylate platinum (II)], the water solubility in data set [2] was 17800 µg/mL.

As to `NCC1(CN)CCCCC1.O=S(=O)([O-])[O-].[Pt+2]` [spiroplatin, cis-1,1-di-(aminomethyl) cyclohexane platinum (II) sulfate], the water solubility in data set [2] was 1000 µg/mL.

Take `CCCCCCCCCCCCCCCC(=O)[O][Pt][O]C(=O)CCCCCCCCCCCCCCC.NC1CCCCC1N` [DACHPt(II)-(Pal)2]: the “T/C (mean survival time treated / control)” value in data set [1] (40 mg/kg × 2 i.p. in lipiodol, Table I) was determined as 110; in data set [1] (198 mg/kg × 2 i.p. in lipiodol, Table I), 115; in data set [1] (991 mg/kg × 2 i.p. in lipiodol, Table I), 170. Also, the “MST (mean survival time)” value in data set [1] (40 mg/kg × 2 i.p. in lipiodol, Table I control MST 10) is recorded as 11; in data set [1] (198 mg/kg × 2 i.p. in lipiodol, Table I control MST 10), 11.5; in data set [1] (991 mg/kg × 2 i.p. in lipiodol, Table I control MST 10) it was 17. The “CR (mice completely cured / total mice tested)” value in data set [1] (mouse, in vivo) is recorded as 0/6.

As for `NC1CCCCC1N.[Cl][Pt][Cl]` (stereo not drawn) [DACHP, Dichloro cyclohexane-1,2-diammine platinum (II), reference compound], the “T/C (mean survival time treated / control)” value is on record as “Toxic” in data set [1] (22 mg/kg × 2 i.p., dispersion in lipiodol, oleic acid moiety two times stoichiometric amount, Table III) and “Toxic” in data set [1] (110 mg/kg × 2 i.p., dispersion in lipiodol, oleic acid moiety two times stoichiometric amount, Table III). For the same compound, the “MST (mean survival time)” value in data set [1] (22 mg/kg × 2 i.p., dispersion in lipiodol, oleic acid moiety two times stoichiometric amount, Table III control MST 8.5) came out at 7.0; in data set [1] (110 mg/kg × 2 i.p., dispersion in lipiodol, oleic acid moiety two times stoichiometric amount, Table III control MST 8.5), 4.0. The “toxicity when administered in a high dose” value in data set [1] (high dose, L1210-CDF1 mice, i.p. in lipiodol) is on record as “high toxicity”. The “complete recovery at rather low dose” value in data set [1] (setting [10]) is reported as “complete recovery is not observed”.

Consider `CCCCCCCCCCCCCC(=O)[O][Pt][O]C(=O)CCCCCCCCCCCCC.NC1CCCCC1N` [DACHPt(II)-(Myr)2], for which the “T/C (mean survival time treated / control)” value is 150 in data set [1] (33 mg/kg × 2 i.p. in lipiodol, Table I) and “Toxic” in data set [1] (833 mg/kg, administered only one time, i.p. in lipiodol, Table I). The “MST (mean survival time)” value is given as 15.0 in data set [1] (33 mg/kg × 2 i.p. in lipiodol, Table I control MST 10) and 8.0*^1 in data set [1] (833 mg/kg, administered only one time, i.p. in lipiodol, Table I control MST 10).

Regarding `CCCCCCCCCCCCCCCCCCCC(=O)[O][Pt][O]C(=O)CCCCCCCCCCCCCCCCCCC.NC1CCCCC1N` [DACHPt(II)-(Ara)2], the “T/C (mean survival time treated / control)” value in data set [1] (73 mg/kg × 2 i.p. in lipiodol, Table II) is recorded as 211; in data set [1] (225 mg/kg × 2 i.p. in lipiodol, Table II) it was 600; in data set [1] (1127 mg/kg × 2 i.p. in lipiodol, Table II), “Toxic”. The “MST (mean survival time)” value in data set [1] (73 mg/kg × 2 i.p. in lipiodol, Table II control MST 9.5) worked out at 20; in data set [1] (225 mg/kg × 2 i.p. in lipiodol, Table II control MST 9.5) it was 60; in data set [1] (1127 mg/kg × 2 i.p. in lipiodol, Table II control MST 9.5), 7.0.

For the compound `CCCCCCCCCCCCCCCCCCCCCC(=O)[O][Pt][O]C(=O)CCCCCCCCCCCCCCCCCCCCC.NC1CCCCC1N` [DACHPt(II)-(Beh)2], the “T/C (mean survival time treated / control)” value in data set [1] (80 mg/kg × 2 i.p. in lipiodol, Table III) was 212; in data set [1] (1195 mg/kg, administered only one time, i.p. in lipiodol, Table III), “Toxic”. Besides, the “MST (mean survival time)” value in data set [1] (80 mg/kg × 2 i.p. in lipiodol, Table III control MST 8.5) is on record as 18.0; in data set [1] (1195 mg/kg, administered only one time, i.p. in lipiodol, Table III control MST 8.5) it was 2.0*^1.
